Laboratory results: US20110191897A1, “Plants Tolerant to HPPD Inhibitor Herbicides” (Bayer CropScience AG, priority 2009, published 2011)
Where “and” joins values, the source holds several entries; their conditions need not be identical. Equal values may be shown once.

Tests used:
[1] = test system: T1 tobacco plants with Arabidopsis HPPD; assay: Glasshouse spray trial, herbicidal damage; format: in vivo, Nicotiana tabacum; conditions: 100 gAl/ha, 7DAT
Experimental: (§1) T0 Tobacco plants containing either the gene from Arabidopsis coding for HPPD or the gene FMP37e from Blepharisma japonicum coding for FMP37 HPPD, mentioned above (Example 3), were transferred to the glasshouse (28/20° C.), to develop further and produce seeds. Those seeds were harvested and put on soil (ED73 mixed with sand and osmocote Pro) to germinate in the glasshouse (28/20° C.). Three to four weeks later, plantlets were transferred to single pots containing the soil mentioned above. Two weeks later, plants of a size 4-6 cm diameter were sprayed with either • tembotrione at 100 Al/ha prepared from a WP20 (wettable powder 20%) formulation supplemented with ammonium sulfate and methyl ester raps oil, or • isoxaflutole at 100 Al/ha prepared from a WP20 formulation supplemented with ammonium sulfate and methyl ester raps oil, or • bicyclopyrone at 100 gAl/ha prepared from a WP20 formulation supplemented with ammonium sulfate and methyl ester raps oil, or • “blind formulation” made from a WP20 formulation without active ingredient (Al) supplemented with ammonium sulfate and methyl ester raps oil, and were then transferred to a growth chamber with adequate light conditions (20000Lux).

[2] = test system: T1 tobacco plants with FMP37e coding for the HPPD FMP37; assay: Glasshouse spray trial, herbicidal damage; format: in vivo, Nicotiana tabacum; conditions: 100 gAl/ha, 7DAT
Experimental: as §1

[3] = test system: transgenic soybean shoots (FMP37); assay: Soybean shoot greening on isoxaflutole selection; format: in vivo; conditions: isoxaflutole as selection marker
Description: (§2) Soybean transformation is achieved using methods well known in the art, such as the one described using the Agrobacterium tumefaciens mediated transformation soybean half-seed explants described by Paz et al. (2006, Plant cell Rep. 25:206). Transformants were identified using Isoxaflutole as selection marker. The appearance of green shoots was observed, and documented as an indicator of tolerance to the herbicide isoxaflutole.

wild-type soybean shoots = assay: Soybean shoot greening on isoxaflutole selection; format: in vivo; conditions: same amount of isoxaflutole
Description: as §2

[4] = target: T1, Arabidopsis thaliana HPPD (SEQ ID No. 10) (Arabidopsis thaliana, UniProt P93836); assay: Spectrophotometric HPPD activity assay in presence of HPPD inhibitors; format: biochemical
T1 construct: made in house; host or cells: E. coli K-12 BL21 (pQE30-AtHPPD)
T1 sequence (P93836 with tags, fused parts or gaps): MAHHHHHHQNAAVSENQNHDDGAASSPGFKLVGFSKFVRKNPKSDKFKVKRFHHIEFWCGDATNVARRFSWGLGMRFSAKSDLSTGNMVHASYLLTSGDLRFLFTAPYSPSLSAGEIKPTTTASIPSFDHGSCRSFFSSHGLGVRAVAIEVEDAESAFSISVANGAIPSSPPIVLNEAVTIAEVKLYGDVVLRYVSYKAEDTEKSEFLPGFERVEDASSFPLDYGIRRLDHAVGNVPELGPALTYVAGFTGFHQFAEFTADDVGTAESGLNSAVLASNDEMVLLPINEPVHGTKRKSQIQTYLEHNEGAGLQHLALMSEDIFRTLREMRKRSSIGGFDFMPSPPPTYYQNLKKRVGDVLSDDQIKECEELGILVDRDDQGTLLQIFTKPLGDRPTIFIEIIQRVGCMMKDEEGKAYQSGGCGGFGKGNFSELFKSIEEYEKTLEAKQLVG

[5] = target: Blepharisma japonicum HPPD (SEQ ID No. 5) (Blepharisma japonicum, UniProt A8R3H6); assay: biochemical
[6] = test system: leaf disks of tobacco plants containing HPPD SEQ ID No. 11 (Arabidopsis thaliana); assay: Leaf disk regeneration on media with HPPD inhibitors; format: cell-based, Nicotiana tabacum; conditions: 10^−6 M, 6 weeks
Experimental: (§3) At the end of the experiments the level of regeneration was evaluated as followed:
(§4) “−” means that the leaf disks looked the same as leaf disk from wild type tobacco plants on media supplemented with the inhibitor mentioned above. “++++” means that the leaf disks looked like the leaf disks from the wild type tobacco plants on media without inhibitor. “+”, “++”, and “+++” indicate regenerated leaf disks were heavily (+), medium (++) and less (+++) affected by the presence of the inhibitors.

[7] = test system: leaf disks of tobacco plants containing HPPD SEQ ID No. 7 (Blepharisma japonicum); assay: as above; format: cell-based, Nicotiana tabacum; design: key to the marks not given beside the values; conditions: 10^−6 M, 6 weeks
Experimental: as §3, §4

[8] = test system: T1 tobacco plants carrying FMP37e (kanamycin selected); assay: Glasshouse response to bicyclopyrone, injury classes; format: in vivo, Nicotiana tabacum; conditions: 7 DAT
Description: (§5) Seeds of wild type tobacco plants and T1 tobacco plants carrying the gene from Blepharisma japonicum FMP37e coding for HPPD were sown on MS media (Murashige and Skoog […]) supplemented with […] kanamycin. After 4 weeks, rooted green plantlets were transferred to soil and grown for 3 weeks in the glasshouse as described above then sprayed with a mixture containing bicyclopyrone (100 g Al/ha), ammonium sulfate and methyl ester raps oil. The plants were classified in two categories based on the phenotype developed in response to the herbicide seven days after the treatment. […] In this case, only plants containing at least one T-DNA were exposed to the herbicidal treatment.

wild type tobacco plants = assay: as above; format: in vivo, Nicotiana tabacum; conditions: WT, 100 g Al/ha, 7 DAT
Description: as §5

[9] = read-out: percentage of inhibition

Chain of Blepharisma japonicum HPPD (SEQ ID No. 5) (A8R3H6 entry or part of it): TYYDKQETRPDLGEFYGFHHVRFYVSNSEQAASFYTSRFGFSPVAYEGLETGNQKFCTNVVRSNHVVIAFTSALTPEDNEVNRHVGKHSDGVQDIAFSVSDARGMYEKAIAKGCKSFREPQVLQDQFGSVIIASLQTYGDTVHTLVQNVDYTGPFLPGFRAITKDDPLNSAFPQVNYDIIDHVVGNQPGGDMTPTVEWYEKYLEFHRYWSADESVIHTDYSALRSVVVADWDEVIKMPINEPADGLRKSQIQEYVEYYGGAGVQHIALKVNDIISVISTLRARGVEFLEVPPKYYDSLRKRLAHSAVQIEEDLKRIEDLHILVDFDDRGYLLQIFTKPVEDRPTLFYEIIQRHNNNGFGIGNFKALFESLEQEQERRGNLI

In the case of CS(=O)(=O)c1cc(C(F)(F)F)ccc1C(=O)c1cnoc1C1CC1 [Isoxaflutole, (5-cyclopropyl-4-isoxazolyl)[2-(methylsulfonyl)-4-(trifluoromethyl)phenyl]methanone], the “% injury” value ([1]; line 252, individual plants) is reported as 99%, the “% injury” value ([1]; line 327, individual plants) is reported as 98% and 99% and 100% (4×) and the “% injury” value ([2]; line 113, individual plants) is reported as 30% (4×) and 50%. For the same compound, the “% injury” value ([2]; line 207, individual plants) was 40%, the “share of transgenic tested shoots showing normal greening” value [3] was 1.5% and the appearance of shoots (wild-type soybean shoots) was “entirely bleached”.
COCCOCc1nc(C(F)(F)F)ccc1C(=O)C1=C(O)C2CCC(C2)C1=O (centres unmarked) [Bicyclopyrone, 4-hydroxy-3-[[2-[(2-methoxyethoxy)methyl]-6-(trifluoromethyl)-3-pyridinyl]carbonyl]bicyclo[3.2.1]oct-3-en-2-one] was tested, and the IC50 [4] was 6.31 µM, the inhibition at 5 µM [4, 9] was 29% and the IC50 ([5]; read-out: pI50 (converted)) was 200 µM. The inhibition at 5 µM [5, 9] was 0%, the “level of regeneration of leaf disks” value [6] was “−” and the “level of regeneration of leaf disks” value [7] was “++++”. The “% of tolerant plant” value ([8]; line 113, 100 g Al/ha) was 56%, the “number of plants in Class I (injury: 0-30%)” value (“number … (injury: 0-30%)” below) ([8]; line 113, 100 g Al/ha) was 60 and the “number of plants in Class II (injury: 31-100%)” value (from here on “number … (injury: 31-100%)”) ([8]; line 113, 100 g Al/ha) was 78. The “% of tolerant plant” value ([8]; line 207, 100 g Al/ha) was over 60%, the “number … (injury: 0-30%)” value ([8]; line 207, 100 g Al/ha) was 65 and the “number … (injury: 31-100%)” value ([8]; line 207, 100 g Al/ha) was over 100. For the same compound, the “% of tolerant plant” value ([8]; line 208, 100 g Al/ha) was 67%, the “number … (injury: 0-30%)” value ([8]; line 208, 100 g Al/ha) was 44 and the “number … (injury: 31-100%)” value ([8]; line 208, 100 g Al/ha) was 90. The “number … (injury: 0-30%)” value (wild type tobacco plants) was 0 and the “number … (injury: 31-100%)” value (wild type tobacco plants) was 12.
